Patent US10703764B2, “Benzopiperazine compositions as BET bromodomain inhibitors” (FORMA Therapeutics, Inc., priority 2013, dated 2020)

Key:
BRD4 BD1 = biological target: T1, BRD4 BD1 (Homo sapiens, UniProt O60885); experiment: AlphaScreen binding assay, BRD4 Bromodomain 1
T1 construct: made in house
How it was run: (§1)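 An AlphaScreen competition format was used with His-BRD4 BD1 or BD2 and biotin-H4 K5/8/12/16-acetyl peptide, each at matched final levels of 50 nM (BD1) or 100 nM (BD2). Incubation in HEPES/NaCl buffer with 0.1% BSA and 0.01% Triton X-100 ran ≥1 h before IC50 determination.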

BRD4 BD2 = biological target: T2, BRD4 BD2 (Homo sapiens, UniProt O60885); experiment: AlphaScreen binding assay, BRD4 Bromodomain 2
T2 construct: made in house
How it was run: as §1

SMILES	IC50 (BRD4 BD1)	IC50 (BRD4 BD2)
CC(=O)N1c2ccc(-c3cncc(Cl)c3)cc2N(C(=O)c2ccco2)C[C@@H]1C [Example I-832]	1000 to 10000 nM	50 to 500 nM
CC(=O)N1c2ccccc2N(C(=O)c2c(C)noc2C)C[C@@H]1C [Example I-768]	> 10000 nM	> 500 nM
CC(=O)N1c2ccc(-c3ccc(S(C)(=O)=O)cc3)cc2N(C(=O)c2ccc(CN)o2)C[C@@H]1C [Example I-890]	1000 to 10000 nM	50 to 500 nM
CC(C)C(=O)N1c2ccc(-c3ccc(S(C)(=O)=O)cc3)cc2N(C(=O)c2ccco2)C[C@@H]1C [Example I-370]	> 10000 nM	> 500 nM
CC(=O)N1c2ccccc2N(C(=O)c2snnc2C)C[C@@H]1C [Example I-757]	> 10000 nM	> 500 nM
CC(=O)N1c2ccccc2N(C(=O)c2csc(Nc3cccnc3)n2)C[C@@H]1C [Example I-725]	> 10000 nM	> 500 nM
CC(=O)N1c2ccc(-c3cccc(-c4ncccn4)c3)cc2N(C(=O)c2ccco2)C[C@@H]1C [Example I-405]	1000 to 10000 nM	50 to 500 nM
CC(=O)N1c2ccccc2N(C(=O)c2cc(C)c(C)o2)C[C@@H]1C [Example I-750]	> 10000 nM	> 500 nM
CC(=O)N1c2ccc(-c3cccc(-c4nnc(C)o4)c3)cc2N(C(=O)c2ccco2)C[C@@H]1C [Example I-854]	1000 to 10000 nM	50 to 500 nM
CC(=O)N1c2ccc(-c3cncn3C)cc2N(C(=O)c2ccco2)C[C@@H]1C [Example I-389]	> 10000 nM	50 to 500 nM
CC(=O)N1c2ccc(-c3cnsc3)cc2N(C(=O)c2ccco2)C[C@@H]1C [Example I-432]	100 to 1000 nM	50 to 500 nM
C[C@H]1CN(C(=O)c2ccco2)c2cc(-c3ccc(S(C)(=O)=O)cc3)ccc2N1C(N)=O [Example I-987]	> 10000 nM	> 500 nM
CC(=O)N1c2ccccc2N(C(=O)c2cc3n(n2)CCC3)C[C@@H]1C [Example I-774]	> 10000 nM	> 500 nM
C[C@H]1CN(C(=O)C2CC2)c2cc(-c3ccc(S(=O)(=O)CCN)cc3)ccc2N1C(=O)C1CC1 [Example I-448]	100 to 1000 nM	< 50 nM
CC(=O)N1c2ccccc2N(C(=O)COCC(C)C)C[C@@H]1C [Example I-772]	> 10000 nM	> 500 nM
CC(=O)N1c2ccccc2N(C(=O)Cn2cnc3ccccc32)C[C@@H]1C [Example I-766]	> 10000 nM	> 500 nM
CC(=O)N1c2ccccc2N(S(=O)(=O)c2ccc(Cl)cc2)C[C@@H]1C [Example I-935]	> 10000 nM	> 500 nM
CC(=O)N1c2ccccc2N(C(=O)Cc2nc(-c3ccccc3)oc2C)C[C@@H]1C [Example I-769]	> 10000 nM	> 500 nM
COC(=O)N1c2ccc(-c3cnn(C(C)(C)CO)c3)cc2N(C(=O)Oc2ccccn2)C[C@@H]1C [Example I-1313]	1000 to 10000 nM	50 to 500 nM
CC(=O)N1c2ccccc2N(C(=O)c2ccc3c(c2)OCO3)C[C@@H]1C [Example I-701]	> 10000 nM	> 500 nM
CC(=O)N1c2ccc(-c3ccc(N4CCCS4(=O)=O)cc3)cc2N(C(=O)c2ccco2)C[C@@H]1C [Example I-424]	100 to 1000 nM	< 50 nM
CC(=O)N1c2ccc(-c3cnn(-c4nc5ccccc5o4)c3)cc2N(c2nc3ccccc3o2)C[C@@H]1C [Example I-56, (S)-1-(4-(benzo[d]oxazol-2-yl)-6-(1-(benzo[d]oxazol-2-yl)-1H-pyrazol-4-yl)-2-methyl-3,4-dihydroquinoxalin-1(2H)-yl)ethanone]	> 10000 nM	> 500 nM
CC(=O)N1c2ccccc2N(C(=O)Cc2ccc3c(c2)OCO3)C[C@@H]1C [Example I-709]	> 10000 nM	> 500 nM
CC(=O)N1c2ccccc2N(Cc2cc(C)nn2C)C[C@@H]1C [Example I-905]	> 10000 nM	> 500 nM
CC(=O)N1c2ccc(-c3cccc(-c4ccco4)c3)cc2N(C(=O)c2ccco2)C[C@@H]1C [Example I-855]	1000 to 10000 nM	< 50 nM
CC(=O)N1c2ccc(C(=O)c3ccccc3)cc2N(C(=O)c2ccco2)C[C@@H]1C [Example I-408]	1000 to 10000 nM	> 500 nM
COC(=O)N1c2ccc(-c3cn(C)nn3)cc2N(C(=O)C2CC2)C[C@@H]1C [Example I-464]	1000 to 10000 nM	50 to 500 nM
COC(=O)N1c2ccc(-c3cnn(C[C@@H]4CCNC4)c3)cc2N(C(=O)OC(C)C)C[C@@H]1C [Example I-691]	1000 to 10000 nM	50 to 500 nM
CC(=O)N1c2ccccc2N(Cc2ccncc2)C[C@@H]1C [Example I-912]	> 10000 nM	> 500 nM
